Read-outs that look alike come from different tables or passages of the source.
What was measured:
cyclophilin A = cyclophilin A (Homo sapiens, UniProt P62937); assay: Cyclophilin A TR-FRET competitive binding assay; conditions: IC50 ranges, competition with CsA-Cy5 for His-tagged CypA, two-hour incubation
Protocol: Cyclophilin A TR-FRET Competitive Binding Assay
Inhibitor potency was measured using a competitive binding assay with a time-resolved fluorescence resonance energy transfer (TR-FRET) readout. […] An IC50 value was calculated using a four-parameter logistic fit.

[1] = test system: HCV replicon (Replicon 1a); assay: anti-HCV activity in Huh-7 cell line harboring a HCV replicon (Replicon 1a); type: cell-based; conditions: Hepatitis C virus, Huh-7, 72 h
[2] = read-out: Replicon 1a % inhibition at 1 μM
[3] = read-out: Replicon 1a % inhibition at 1 μM, 1 μM, human hepatoma Huh-7 HCV replicon cells, 3 days, luciferase readout

Sequence of cyclophilin A (P62937 whole entry, species assumed): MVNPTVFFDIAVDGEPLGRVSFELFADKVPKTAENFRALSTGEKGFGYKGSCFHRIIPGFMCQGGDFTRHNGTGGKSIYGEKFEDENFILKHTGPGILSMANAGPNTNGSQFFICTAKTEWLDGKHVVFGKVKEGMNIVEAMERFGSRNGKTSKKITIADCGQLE

SMILES	IC50 (cyclophilin A; read-out: TR-FRET)	inhibition at 1 µM [1, 2]	inhibition at 1 µM [1, 3]	IC50 (cyclophilin A; TR-FRET)
CC(C)[C@@H]1NC(=O)C(C)(C)/C=C/c2ccc3ccc(nc3c2)[C@@H](C(F)(F)F)NC(=O)[C@@H]2CCCN(N2)C(=O)[C@H](C)NC1=O [Compound 13]	< 100 nM	87%	–	–
CC(C)[C@@H]1NC(=O)C/C=C/c2ccc3ncc(cc3c2)[C@@H](C)OC(=O)[C@@H]2CCCN(N2)C(=O)[C@H](C)NC1=O [Compound 14]	< 100 nM	–	94%	–
CC(C)[C@@H]1NC(=O)C/C=C/c2cnc3ccc(cc3c2)[C@@H](C)OC(=O)[C@@H]2CCCN(N2)C(=O)[C@H](C)NC1=O [Compound 15]	< 100 nM	–	99%	–
CC(C)[C@@H]1NC(=O)C/C=C/c2ccc3ccc(cc3n2)[C@@H](C)OC(=O)[C@@H]2CCCN(N2)C(=O)[C@H](C)NC1=O [Compound 16]	101 to 1000 nM	–	94%	–
CC(C)[C@@H]1NC(=O)C(C)(C)/C=C/c2ccc3cnc(cc3c2)[C@@H](C)OC(=O)[C@@H]2CCCN(N2)C(=O)[C@H](C)NC1=O [Compound 17]	< 100 nM	–	100%	–
CC(C)[C@@H]1NC(=O)C(C)(C)CCc2ccc3cnc(cc3c2)[C@@H](C)OC(=O)[C@@H]2CCCN(N2)C(=O)[C@H](C)NC1=O [Compound 18]	< 100 nM	–	94%	–
CC[C@@H]1/C=C/c2cc3cc(ccc3cn2)[C@@H](C)OC(=O)[C@@H]2CCCN(N2)C(=O)[C@H](C)NC(=O)[C@H](C(C)C)NC1=O [Compound 19]	< 100 nM	–	97%	–
CC1/C=C/c2cc3cc(ccc3cn2)[C@@H](C)OC(=O)[C@@H]2CCCN(N2)C(=O)[C@H](C)NC(=O)[C@H](C(C)C)NC1=O (some centres unmarked) [Compound 20]	< 100 nM	–	99%	–
CC(C)[C@@H]1NC(=O)[C@H](C)C/C=C/c2cc3cc(ccc3cn2)[C@@H](C)OC(=O)[C@@H]2CCCN(N2)C(=O)[C@H](C)NC1=O [Compound 21]	< 100 nM	–	93%	–
CC(C)[C@@H]1NC(=O)C/C=C/c2cc3cc(ccc3cn2)[C@@H](C(F)(F)F)NC(=O)[C@@H]2CCCN(N2)C(=O)[C@H](C)NC1=O [Compound 23]	< 100 nM	–	99%	–
CO[C@@H]1CC/C=C/c2ccc3c(c2)[C@@H](CC3)N(C)C(=O)[C@@H]2CCCN(N2)C(=O)[C@H](C)NC(=O)[C@H](C(C)C)NC(=O)[C@@H]1C [Compound 25]	–	71%	–	101 to 1000 nM
CC(C)[C@@H]1NC(=O)[C@H](C)/C=C/c2ccc3ccc(nc3c2)[C@@H](C)OC(=O)[C@@H]2CCCN(N2)C(=O)[C@H](C)NC1=O [Compound 26]	–	99%	–	< 100 nM
CC(C)[C@@H]1NC(=O)[C@@H](C)/C=C/c2ccc3ccc(nc3c2)[C@@H](C)OC(=O)[C@@H]2CCCN(N2)C(=O)[C@H](C)NC1=O [Compound 27]	–	100%	–	< 100 nM
CO[C@@H]1CC/C=C/c2cccc(c2)C2CCCCN2C(=O)[C@@H]2CCCN(N2)C(=O)[C@H](C)NC(=O)[C@H](C(C)C)NC(=O)[C@@H]1C (some centres unmarked) [Compound 28]	101 to 1000 nM	–	56%	–
CC(C)[C@@H]1NC(=O)C/C=C/c2ccc3nnc(cc3c2)[C@@H](C)OC(=O)[C@@H]2CCCN(N2)C(=O)[C@H](C)NC1=O [Compound 32]	< 100 nM	–	71%	–
CO[C@@H]1/C=C/c2cc3cc(ccc3cn2)[C@@H](C)OC(=O)[C@@]2(C)CCCN(N2)C(=O)[C@H](C)NC(=O)C(C(C)C)NC(=O)[C@@H]1C (some centres unmarked) [Compound 33]	1000 to 10000 nM	–	14%	–
CC(C)[C@@H]1NC(=O)[C@H](C)C/C=C/COc2ccc(F)c(c2)[C@@H](C)OC(=O)C2CCCN(N2)C(=O)[C@H](C)NC1=O (some centres unmarked) [Compound 35]	–	94%	–	< 100 nM
CC(C)[C@@H]1NC(=O)[C@H](C)CCCCOc2ccc(F)c(c2)[C@@H](C)OC(=O)[C@@H]2CCCN(N2)C(=O)[C@H](C)NC1=O [Compound 36]	< 100 nM	–	73%	–
CO[C@@H]1/C=C/COc2cccc(c2)[C@@H](C(C)C)NC(=O)[C@@H]2CCCN(N2)C(=O)[C@H](C)NC(=O)[C@H](C(C)C)NC(=O)[C@@H]1C [Compound 37, (E)-(2R,5S,11 S,14S,17R,18R)-2,14-Diisopropyl-18-methoxy-11,17-dimethyl-22-oxa-3,9,12,15,28-pentaaza-tricyclo[21.3.1.1*5,9*]octacosa-1 (27),19,23,25-tetraene-4,10,13,16-tetraone]	–	76%	–	< 100 nM
CC(C)[C@@H]1NC(=O)COc2ccc(cc2)-c2cccc(c2)[C@@H](C)OC(=O)[C@@H]2CCCN(N2)C(=O)[C@H](C)NC1=O [Compound 38]	< 100 nM	–	98%	–
CC(C)[C@@H]1NC(=O)[C@H](C)Oc2ccc(cc2)-c2cccc(c2)[C@@H](C)OC(=O)[C@@H]2CCCN(N2)C(=O)[C@H](C)NC1=O [Compound 39]	< 100 nM	–	98%	–
CC(C)[C@@H]1NC(=O)[C@@H](C)Oc2ccc(cc2)-c2cccc(c2)[C@@H](C)OC(=O)[C@@H]2CCCN(N2)C(=O)[C@H](C)NC1=O [Compound 40]	< 100 nM	–	96%	–

SMILES	IC50 (cyclophilin A; read-out: TR-FRET)	inhibition at 1 µM [1, 2]	inhibition at 1 µM [1, 3]	IC50 (cyclophilin A; TR-FRET)
CC(C)[C@@H]1NC(=O)COc2ccc(cc2)-c2cccc(n2)[C@@H](C)OC(=O)[C@@H]2CCCN(N2)C(=O)[C@H](C)NC1=O [Compound 41]	< 100 nM	–	96%	–
CC(C)[C@@H]1NC(=O)CCn2cc(cn2)-c2cccc(c2)[C@@H](C)OC(=O)[C@@H]2CCCN(N2)C(=O)[C@H](C)NC1=O [Compound 42]	101 to 1000 nM	–	16%	–
CC(C)[C@@H]1NC(=O)CCc2ccc(cc2)-c2cccc(c2)[C@@H](C)OC(=O)[C@@H]2CCCN(N2)C(=O)[C@H](C)NC1=O [Compound 43]	< 100 nM	–	97%	–
CC(C)[C@@H]1NC(=O)CCc2ccc(cn2)-c2cccc(c2)[C@@H](C)OC(=O)[C@@H]2CCCN(N2)C(=O)[C@H](C)NC1=O [Compound 44]	< 100 nM	–	78%	–
CC(C)[C@@H]1NC(=O)CCc2ccc(nc2)-c2cccc(c2)[C@@H](C)OC(=O)[C@@H]2CCCN(N2)C(=O)[C@H](C)NC1=O [Compound 45]	< 100 nM	–	80%	–
CC(C)[C@@H]1NC(=O)[C@H](C)CCCc2cc3cc(ccc3cn2)[C@@H](C)OC(=O)[C@@H]2CCCN(N2)C(=O)[C@H](C)NC1=O [Compound 46]	< 100 nM	–	90%	–
C[C@@H]1NC(=O)[C@H](CO)NC(=O)C/C=C/c2cc3cc(ccc3cn2)[C@@H](C)OC(=O)[C@@H]2CCCN(N2)C1=O [Compound 47]	101 to 1000 nM	–	9%	–
C[C@@H]1NC(=O)[C@H]([C@@H](C)O)NC(=O)C/C=C/c2cc3cc(ccc3cn2)[C@@H](C)OC(=O)[C@@H]2CCCN(N2)C1=O [Compound 48]	< 100 nM	–	40%	–
C[C@@H]1NC(=O)[C@H](CCn2ccnn2)NC(=O)C(C)(C)/C=C/c2cc3cc(ccc3cn2)[C@@H](C)OC(=O)[C@@H]2CCCN(N2)C1=O [Compound 50]	101 to 1000 nM	12%	–	–
C=CC[C@@H]1NC(=O)C(C)(C)/C=C/c2cc3cc(ccc3cn2)[C@@H](C)OC(=O)[C@@H]2CCCN(N2)C(=O)[C@H](C)NC1=O [Compound 52]	< 100 nM	–	98%	–
C[C@@H]1NC(=O)[C@H](C2CCCCC2)NC(=O)C/C=C/c2cc3cc(ccc3cn2)[C@@H](C)OC(=O)[C@@H]2CCCN(N2)C1=O [Compound 53]	101 to 1000 nM	–	89%	–
C[C@@H]1NC(=O)[C@H](Cc2ccccc2)NC(=O)C/C=C/c2cc3cc(ccc3cn2)[C@@H](C)OC(=O)[C@@H]2CCCN(N2)C1=O [Compound 54]	< 100 nM	–	98%	–
C[C@@H]1NC(=O)[C@H](Cc2cccnc2)NC(=O)C(C)(C)/C=C/c2cc3cc(ccc3cn2)[C@@H](C)OC(=O)[C@@H]2CCCN(N2)C1=O [Compound 55]	101 to 1000 nM	–	76%	–
C[C@@H]1NC(=O)[C@H](CCc2ccccc2)NC(=O)C/C=C/c2cc3cc(ccc3cn2)[C@@H](C)OC(=O)[C@@H]2CCCN(N2)C1=O [Compound 56]	101 to 1000 nM	–	47%	–
CC(C)[C@@H]1NC(=O)C2(CCOCC2)CCc2cc3cc(ccc3cn2)[C@@H](C)OC(=O)[C@@H]2CCCN(N2)C(=O)[C@H](C)NC1=O [Compound 60]	101 to 1000 nM	–	65%	–
CC(C)[C@@H]1NC(=O)CCCCCc2cc3cc(ccc3cn2)[C@@H](C)OC(=O)[C@@H]2CCCN(N2)C(=O)[C@H](C)NC1=O [Compound 62]	101 to 1000 nM	–	25%	–
CC(C)[C@@H]1NC(=O)CCCCCCc2cc3cc(ccc3cn2)[C@@H](C)OC(=O)[C@@H]2CCCN(N2)C(=O)[C@H](C)NC1=O [Compound 64]	101 to 1000 nM	–	35%	–
CC(C)[C@@H]1NC(=O)Cc2cccc(c2)-c2cc3cc(ccc3cn2)[C@@H](C)OC(=O)[C@@H]2CCCN(N2)C(=O)[C@H](C)NC1=O [Compound 65]	< 100 nM	–	92%	–
CC(C)[C@@H]1NC(=O)C(C)(C)c2cccc(c2)-c2cc3cc(ccc3cn2)[C@@H](C)OC(=O)C2CCCN(N2)C(=O)[C@H](C)NC1=O (some centres unmarked) [Compound 67]	< 100 nM	–	97%	–
CC(C)[C@@H]1NC(=O)C(C)(C)COc2cc3cc(ccc3cn2)[C@@H](C)OC(=O)[C@H]2CCCN(N2)C(=O)[C@H](C)NC1=O [Compound 69]	1000 to 10000 nM	–	19%	–
C[C@@H]1NC(=O)[C@H](CCn2cc(CO)nn2)NC(=O)C(C)(C)/C=C/c2cc3cc(ccc3cn2)[C@@H](C)OC(=O)[C@@H]2CCCN(N2)C1=O [Compound 72]	101 to 1000 nM	0%	–	–

From patent US9512175B2, “Macrocyclic inhibitors of flaviviridae viruses” (Gilead Sciences, Inc., priority 2012, dated 2016)
